Measurements reported in ChEMBL document CHEMBL5356983, “Design and optimization of piperlongumine analogs as potent senolytics” (Bioorg Med Chem Lett, 2024).

Legend:
WI-38 = assay: Senolytic activity in ionizing radiation induced human WI-38 senescent cells by PI staining based flow cytometry analysis; assay type: functional, cell-based
[1] = Senolytic activity in non-senescent human WI-38 cells by PI staining based flow cytometry analysis; assay type: toxicity, cell-based; conditions: non-senescent WI-38 cells
[2] = Selectivity ratio IC50 for non-senescent human WI-38 cells to IC50 for ionizing radiation induced human WI-38 senescent cells; assay type: functional

`COc1cc(/C=C/C(=O)N2CCC=C(C(F)(F)F)C2=O)cc(OC)c1OC` gave an IC50 (WI-38) of over 40 µM and an IC50 [1] of over 40 µM.

In the case of `CN(C)CCOc1ccc(/C=C/C(=O)N2CCCC=C(Br)C2=O)cc1`, the “Ratio IC50” value [2] is reported as 1.2, the IC50 (WI-38) is reported as 2.9 µM and the IC50 [1] is reported as 3.4 µM.

For `COc1ccc(/C=C/C(=O)N2CCCC=C(Cl)C2=O)cc1`, the “Ratio IC50” value [2] was 9.3, the IC50 (WI-38) was 0.16 µM and the IC50 [1] was 1.5 µM.

In the case of `COc1cc(/C=C/C(=O)N2CCC(=O)/C(=C/c3ccc(F)cc3)C2)cc(OC)c1OC`, the “Ratio IC50” value [2] is reported as 3.9, the IC50 (WI-38) is reported as 14 µM and the IC50 [1] is reported as 53.8 µM.

In the case of `CN(C)CCOc1ccc(/C=C/C(=O)N2CCC=C(Br)C2=O)cc1`, the “Ratio IC50” value [2] is reported as 1.5, the IC50 (WI-38) is reported as 3.2 µM and the IC50 [1] is reported as 4.8 µM.

With `COc1cc(/C=C/C(=O)N2CCC(N(C)C)CC2=O)cc(OC)c1OC` (stereo unspecified) the “Ratio IC50” value [2] was 3.4, the IC50 (WI-38) was 10.2 µM and the IC50 [1] was 34.6 µM.

With `COc1ccc(/C=C/C(=O)N2CCC=C(Br)C2=O)cc1` the “Ratio IC50” value [2] was 1.8, the IC50 (WI-38) was 0.63 µM and the IC50 [1] was 1.1 µM.

For `CN(C)CCOc1ccc(/C=C/C(=O)N2CCC=CC2=O)cc1`, the “Ratio IC50” value [2] was 13.3, the IC50 (WI-38) was 1.5 µM and the IC50 [1] was 19.5 µM.

With `COc1ccc(/C=C/C(=O)N2CCCC=C(Br)C2=O)cc1` the “Ratio IC50” value [2] was 4.4, the IC50 (WI-38) was 1.3 µM and the IC50 [1] was 5.8 µM.

With `COc1cc(/C=C/C(=O)N2CCC(=O)/C(=C/c3ccc(F)cc3F)C2)cc(OC)c1OC` the “Ratio IC50” value [2] was 4.2, the IC50 (WI-38) was 14.7 µM and the IC50 [1] was 62.5 µM.

With `COc1cc(/C=C/C(=O)N2CCCC=C(Cl)C2=O)cc(OC)c1OC` the “Ratio IC50” value [2] was 3.7, the IC50 (WI-38) was 0.45 µM and the IC50 [1] was 1.7 µM.

In the case of `COc1cc(/C=C/C(=O)N2CCC=C(F)C2=O)cc(OC)c1OC`, the “Ratio IC50” value [2] is reported as 0.8, the IC50 (WI-38) is reported as 15.3 µM and the IC50 [1] is reported as 12.1 µM.

In the case of `COc1cc(/C=C/C(=O)N2CCC=C(Br)C2=O)cc(OC)c1OC`, the “Ratio IC50” value [2] is reported as 10.4, the IC50 (WI-38) is reported as 0.52 µM and the IC50 [1] is reported as 5.4 µM.

In the case of `COc1cc(/C=C/C(=O)N2CCC=C(I)C2=O)cc(OC)c1OC`, the “Ratio IC50” value [2] is reported as 7.1, the IC50 (WI-38) is reported as 2.3 µM and the IC50 [1] is reported as 16.3 µM.

With `COc1cc(/C=C/C(=O)N2CC=CCC2=O)cc(OC)c1OC` the “Ratio IC50” value [2] was over 2.9, the IC50 (WI-38) was 27.5 µM and the IC50 [1] was over 80 µM.

For `COc1cc(/C=C/C(=O)N2CC(O)C=CC2=O)cc(OC)c1OC` (stereo unspecified), the “Ratio IC50” value [2] was 1.5, the IC50 (WI-38) was 7.4 µM and the IC50 [1] was 11.3 µM.

For `CN(C)CCOc1ccc(/C=C/C(=O)N2CCCC=C(Cl)C2=O)cc1`, the “Ratio IC50” value [2] was 1.3, the IC50 (WI-38) was 2.4 µM and the IC50 [1] was 3 µM.

Work on `COc1cc(/C=C/C(=O)N2CCC(=O)CC2)cc(OC)c1OC` yielded an IC50 (WI-38) of over 40 µM and an IC50 [1] of over 40 µM.

In the case of `COc1cc(/C=C/C(=O)N2CCC=C(Cl)C2=O)cc(OC)c1OC`, the “Ratio IC50” value [2] is reported as 8.1, the IC50 (WI-38) is reported as 0.65 µM and the IC50 [1] is reported as 5.3 µM.

With `COc1cc(/C=C/C(=O)N2CCC=CC2=O)cc(OC)c1OC` [PIPLARTINE] the “Ratio IC50” value [2] was 2.5 and the IC50 [1] was 20.3 µM.

With `COc1cc(/C=C/C(=O)N2CCCC=C(Br)C2=O)cc(OC)c1OC` the “Ratio IC50” value [2] was 6.5, the IC50 (WI-38) was 0.56 µM and the IC50 [1] was 3.6 µM.

With `COc1ccc(/C=C/C(=O)N2CCC=C(Cl)C2=O)cc1` the “Ratio IC50” value [2] was 0.7, the IC50 (WI-38) was 0.51 µM and the IC50 [1] was 0.35 µM.

For `CN(C)CCOc1ccc(/C=C/C(=O)N2CCC=C(Cl)C2=O)cc1`, the “Ratio IC50” value [2] was 1.5, the IC50 (WI-38) was 2.9 µM and the IC50 [1] was 4.4 µM.

With `O=C(C#Cc1ccccc1)N1CCC=CC1=O` the “Ratio IC50” value [2] was 1.6, the IC50 (WI-38) was 0.93 µM and the IC50 [1] was 1.5 µM.

With `COc1cc(/C=C/C(=O)N2C=CC=CCC2=O)cc(OC)c1OC` the “Ratio IC50” value [2] was 1.3, the IC50 (WI-38) was 21.1 µM and the IC50 [1] was 26.7 µM.

For `COc1cc(/C=C/C(=O)N2OCC=CC2=O)cc(OC)c1OC`, the “Ratio IC50” value [2] was 6, the IC50 (WI-38) was 8.1 µM and the IC50 [1] was 48.9 µM.

With `CN(C)C/C=C/C(=O)N1CCC=CC1=O` the “Ratio IC50” value [2] was 3.5, the IC50 (WI-38) was 2.8 µM and the IC50 [1] was 9.7 µM.

For `COc1cc(C#CC(=O)N2CCC=CC2=O)cc(OC)c1OC`, the “Ratio IC50” value [2] was 3.2, the IC50 (WI-38) was 4.4 µM and the IC50 [1] was 13.9 µM.
